Results as given in patent US20250115595A1, “INHIBITORS OF HYPOXIA-INDUCIBLE FACTORS” (The Johns Hopkins University, priority 2021, published 2025).

Test system: cytokine mRNAs
Assay: RT-qPCR array of mouse cytokines and chemokines in Hepa1-6 tumors
Type: in vivo
Conditions: Hepa1-6 tumors, vs vehicle
Protocol: Total RNA from Hepa1-6 tumors was analyzed using the RT2 Profiler PCR Array of Mouse Cytokines and Chemokines (Qiagen, catalog number 330231 PAMM-150ZA) according to the manufacturer's instructions.

Brc1ccc2c(-c3csc(-c4c[nH]c5c(Br)cccc45)n3)c[nH]c2c1 [Compound 32-134D, 4-(6-bromo-1H-indol-3-yl)-2-(7-bromo-1H-indol-3-yl)thiazole]
Mstn mRNA Fold Up- or Down-Regulation Test Group/Control Group: −4.85
Mstn mRNA X axis (Log2(fold change)): −2.28
Nodal mRNA Fold Change Test Group/Control Group: 0.29
Nodal mRNA Fold Up- or Down-Regulation Test Group/Control Group: −3.43
Nodal mRNA X axis (Log2(fold change)): −1.78
Osm mRNA Fold Change Test Group/Control Group: 0.38
Osm mRNA Fold Up- or Down-Regulation Test Group/Control Group: −2.65
Osm mRNA X axis (Log2(fold change)): −1.40
Pf4 mRNA Fold Change Test Group/Control Group: 0.68
Pf4 mRNA Fold Up- or Down-Regulation Test Group/Control Group: −1.47
Pf4 mRNA X axis (Log2(fold change)): −0.56
Ppbp mRNA Fold Change Test Group/Control Group: 0.64
Ppbp mRNA Fold Up- or Down-Regulation Test Group/Control Group: −1.56
Ppbp mRNA X axis (Log2(fold change)): −0.65
Spp1 mRNA Fold Change Test Group/Control Group: 1.71
Spp1 mRNA Fold Up- or Down-Regulation Test Group/Control Group: 1.71
Spp1 mRNA X axis (Log2(fold change)): 0.77
Tgfb2 mRNA Fold Change Test Group/Control Group: 0.74
Tgfb2 mRNA Fold Up- or Down-Regulation Test Group/Control Group: −1.36
Tgfb2 mRNA X axis (Log2(fold change)): −0.44
Thpo mRNA Fold Change Test Group/Control Group: 0.55
Thpo mRNA Fold Up- or Down-Regulation Test Group/Control Group: −1.82
Thpo mRNA X axis (Log2(fold change)): −0.87
Tnf mRNA Fold Change Test Group/Control Group: 0.25
Tnf mRNA Fold Up- or Down-Regulation Test Group/Control Group: −4.00
Tnf mRNA X axis (Log2(fold change)): −2.00
Tnfrsf11b mRNA Fold Change Test Group/Control Group: 0.25
Tnfrsf11b mRNA Fold Up- or Down-Regulation Test Group/Control Group: −4.07
Tnfrsf11b mRNA X axis (Log2(fold change)): −2.02
Tnfsf10 mRNA Fold Change Test Group/Control Group: 1.02
Tnfsf10 mRNA Fold Up- or Down-Regulation Test Group/Control Group: 1.02
Tnfsf10 mRNA X axis (Log2(fold change)): 0.03
Tnfsf11 mRNA Fold Change Test Group/Control Group: 0.38
Tnfsf11 mRNA Fold Up- or Down-Regulation Test Group/Control Group: −2.61
Tnfsf11 mRNA X axis (Log2(fold change)): −1.39
Tnfsf13b mRNA Fold Change Test Group/Control Group: 0.88
Tnfsf13b mRNA Fold Up- or Down-Regulation Test Group/Control Group: −1.13
Tnfsf13b mRNA X axis (Log2(fold change)): −0.18
Vegfa mRNA Fold Change Test Group/Control Group: 0.40
Vegfa mRNA Fold Up- or Down-Regulation Test Group/Control Group: −2.52
Vegfa mRNA X axis (Log2(fold change)): −1.33
Xcl1 mRNA Fold Change Test Group/Control Group: 1.47
Xcl1 mRNA Fold Up- or Down-Regulation Test Group/Control Group: 1.47
Xcl1 mRNA X axis (Log2(fold change)): 0.56
lfna2 mRNA Fold Change Test Group/Control Group: 0.26
lfna2 mRNA Fold Up- or Down-Regulation Test Group/Control Group: −3.85
lfna2 mRNA X axis (Log2(fold change)): −1.95
lfng mRNA Fold Change Test Group/Control Group: 1.63
lfng mRNA Fold Up- or Down-Regulation Test Group/Control Group: 1.63
lfng mRNA X axis (Log2(fold change)): 0.70
ll1a mRNA Fold Change Test Group/Control Group: 0.68
ll1a mRNA Fold Up- or Down-Regulation Test Group/Control Group: −1.47
ll1a mRNA X axis (Log2(fold change)): −0.56
ll1b mRNA Fold Change Test Group/Control Group: 0.34
ll1b mRNA Fold Up- or Down-Regulation Test Group/Control Group: −2.92
ll1b mRNA X axis (Log2(fold change)): −1.55
ll1rn mRNA Fold Change Test Group/Control Group: 0.68
ll1rn mRNA Fold Up- or Down-Regulation Test Group/Control Group: −1.47
ll1rn mRNA X axis (Log2(fold change)): −0.56
ll2 mRNA Fold Change Test Group/Control Group: 0.30
ll2 mRNA Fold Up- or Down-Regulation Test Group/Control Group: −3.37
ll2 mRNA X axis (Log2(fold change)): −1.75
ll3 mRNA Fold Change Test Group/Control Group: 0.36
